Results reported in patent US10287305B2, “Substituted piperidine compound and use thereof” (Takeda Pharmaceutical Company Limited, priority 2016, dated 2019).
Where two headings read alike, the source gives them in different places.

Molecular target: human orexin type 2 receptor (hOX2R) (Homo sapiens (Human), UniProt O43614)
Assay: Measurement of orexin type 2 receptor agonist activity (Experimental Example 2-1, FLIPR TETRA, intracellular Ca2+)
Assay type: cell-based
Settings: CHO dhfr- cells expressing hOX2R
[1] = FLIPR TETRA, Fluo-4AM, read-out: Emax (%)
[2] = agonist activity, 10 nM human orexin B = 100%
[3] = value at 30 uM concentration, orexin B as full agonist = 100%

Chain of human orexin type 2 receptor (hOX2R) (O43614 whole entry): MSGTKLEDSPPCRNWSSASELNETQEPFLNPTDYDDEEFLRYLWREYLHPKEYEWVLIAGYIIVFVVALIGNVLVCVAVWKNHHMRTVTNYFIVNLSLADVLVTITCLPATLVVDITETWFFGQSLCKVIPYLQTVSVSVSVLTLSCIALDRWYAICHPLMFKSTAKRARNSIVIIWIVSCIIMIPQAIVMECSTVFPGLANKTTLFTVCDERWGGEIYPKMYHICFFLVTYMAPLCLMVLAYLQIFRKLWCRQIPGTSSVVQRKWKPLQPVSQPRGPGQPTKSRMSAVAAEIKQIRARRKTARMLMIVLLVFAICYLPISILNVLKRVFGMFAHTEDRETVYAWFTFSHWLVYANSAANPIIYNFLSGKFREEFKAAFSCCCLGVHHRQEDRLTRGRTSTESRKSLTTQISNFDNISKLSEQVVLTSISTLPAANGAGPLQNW

| EC50 (FLIPR TETRA, Fluo-4AM) [nM] | Emax [1] [%] | EC50 [2] [nM] | Emax at 30 µM [3] [%] | Compound | also measured |
| --- | --- | --- | --- | --- | --- |
| 1000 | 98 |  |  | CS(=O)(=O)N[C@H]1CCCN(C(=O)C2CC2(F)F)[C@H]1COC1CCN(c2ccccc2F)CC1 (relative stereo) [Example 225, N-(cis-1-((2,2-difluorocyclopropyl)carbonyl)-2-(((1-(2-fluorophenyl)piperidin-4-yl)oxy)methyl)piperidin-3-yl)methanesulfonamide] |  |
| 2400 | 88 |  |  | CC(=O)N1CCC[C@H](NS(C)(=O)=O)[C@@H]1COC1CCC(c2ccccc2)C1 (relative stereo) [Example 337, N-(cis-1-acetyl-2-(((3-phenylcyclopentyl)oxy)methyl)-piperidin-3-yl)methanesulfonamide] |  |
| 1600 | 96 |  |  | CS(=O)(=O)N[C@H]1CCCN(C(=O)[C@@H]2C[C@@H]2F)[C@H]1COC1CCN(c2ccccc2F)CC1 [Example 221, N-(cis-1-(((1S,2S)-2-fluorocyclopropyl)carbonyl)-2-(((1-(2-fluorophenyl)piperidin-4-yl)oxy)methyl)piperidin-3-yl)methanesulfonamide] |  |
| 2600 | 85 |  |  | CCNC(=O)N1CCC[C@H](NS(C)(=O)=O)[C@@H]1COC1CCC(OC)CC1 (relative stereo) [Example 126, cis-N-ethyl-2-(((4-methoxycyclohexyl)oxy)methyl)-3-((methylsulfonyl)amino)piperidine-1-carboxamide] |  |
|  |  | 89 | 96 | CC(C)[C@H]1CC[C@@H](OC[C@H]2[C@@H](NS(C)(=O)=O)CCCN2C(=O)CCO)CC1 (relative stereo) [Example 72, N-(cis-1-(3-hydroxypropanoyl)-2-(((cis-4-isopropylcyclohexyl)oxy)methyl)piperidin-3-yl)methanesulfonamide] |  |
|  |  | 2.3 | 115 | CC(C)NC(=O)N1CCC[C@H](NS(C)(=O)=O)[C@@H]1CO[C@H]1CC[C@@H](C(C)C)CC1 (relative stereo) [Example 101, cis-N-isopropyl-2-(((cis-4-isopropylcyclohexyl)oxy)methyl)-3-((methylsulfonyl)amino)piperidine-1-carboxamide] |  |
|  |  | 2.7 | 96 | COc1ccccc1[C@H]1CC[C@@H](OC[C@H]2[C@@H](NS(C)(=O)=O)CCCN2C(=O)C2CC2)CC1 [Example 28, N-((2R,3S)-1-(cyclopropylcarbonyl)-2-(((cis-4-(2-methoxyphenyl)cyclohexyl)oxy)methyl)piperidin-3-yl)methanesulfonamide] |  |
| 0.55 |  |  |  | CCNC(=O)N1CCC[C@H](NS(C)(=O)=O)[C@@H]1CO[C@H]1CC[C@@H](c2ccccc2C(F)(F)F)CC1 [Example 282, (2R,3S)-N-ethyl-3-((methylsulfonyl)amino)-2-(((cis-4-(2-(trifluoromethyl)phenyl)cyclohexyl)oxy)methyl)piperidine-1-carboxamide] | Emax (%) (FLIPR TETRA, Fluo-4AM): 93% |
| 730 | 113 |  |  | CS(=O)(=O)N[C@H]1CCCN(C(=O)C2CC2)[C@H]1COC1CCN(c2ccccc2F)CC1 [Example 246, N-((2R,3S)-1-(cyclopropylcarbonyl)-2-(((1-(2-fluorophenyl)piperidin-4-yl)oxy)methyl)piperidin-3-yl)methanesulfonamide] |  |
| 13 | 101 |  |  | CS(=O)(=O)N[C@H]1CCCN(C(=O)CC(F)(F)F)[C@H]1CO[C@H]1CC[C@@H](c2ccccc2)CC1 [Example 306, N-((2R,3S)-2-(((cis-4-phenylcyclohexyl)oxy)methyl)-1-(3,3,3-trifluoropropanoyl)piperidin-3-yl)methanesulfonamide] |  |
|  |  | 3800 | 87 | CC(C)[C@H]1CC[C@@H](OC[C@H]2[C@@H](NS(C)(=O)=O)CCCN2S(=O)(=O)c2cccnc2)CC1 (relative stereo) [Example 66, N-(cis-2-(((cis-4-isopropylcyclohexyl)oxy)methyl)-1-(pyridin-3-ylsulfonyl)piperidin-3-yl)methanesulfonamide] |  |
|  |  |  | 93 | CC(C)[C@H]1CC[C@@H](OC[C@H]2[C@@H](NS(C)(=O)=O)CCCN2S(=O)(=O)c2cnn(C)c2)CC1 (relative stereo) [Example 67, N-(cis-2-(((cis-4-isopropylcyclohexyl)oxy)methyl)-1-((1-methyl-1H-pyrazol-4-yl)sulfonyl)piperidin-3-yl)methanesulfonamide] |  |
| 5.2 | 97 |  |  | CCS(=O)(=O)N[C@H]1CCCN(C(=O)C2CC2)[C@H]1CO[C@H]1CC[C@@H](c2ccccc2)CC1 (relative stereo) [Example 279, N-(cis-1-(cyclopropylcarbonyl)-2-(((cis-4-phenylcyclohexyl)oxy)methyl)piperidin-3-yl)ethanesulfonamide] |  |
| 3300 | 86 |  |  | COC(=O)N1CCC[C@H](NS(C)(=O)=O)[C@@H]1COC1CCN(c2c(Cl)cccc2Cl)CC1 (relative stereo) [Example 186, methyl cis-2-(((1-(2,6-dichlorophenyl)piperidin-4-yl)oxy)methyl)-3-((methylsulfonyl)amino)piperidine-1-carboxylate] |  |
|  |  | 140 | 101 | CC(C)[C@H]1CC[C@@H](OC[C@H]2[C@@H](NS(C)(=O)=O)CCCN2C(=O)C2CCOCC2)CC1 (relative stereo) [Example 60, N-(cis-2-(((cis-4-isopropylcyclohexyl)oxy)methyl)-1-(tetrahydro-2H-pyran-4-ylcarbonyl)piperidin-3-yl)methanesulfonamide] |  |
| 57 | 88 |  |  | CCNC(=O)N1CCC[C@H](NS(C)(=O)=O)[C@@H]1CO[C@H]1CC[C@@H](c2ccccc2C#N)CC1 (relative stereo) [Example 263, cis-2-(((cis-4-(2-cyanophenyl)cyclohexyl)oxy)methyl)-N-ethyl-3-((methylsulfonyl)amino)piperidine-1-carboxamide] |  |
|  |  | 170 | 98 | [2H]C1C([2H])[C@]([2H])(C(C)C)C([2H])C([2H])[C@]1([2H])OC[C@H]1[C@@H](NS(C)(=O)=O)CCCN1C(C)=O (stereo partly drawn) [Example 103, N-(cis-1-acetyl-2-(((cis-4-isopropyl(1,2,3,4,5,6-d6)cyclohexyl)oxy)methyl)piperidin-3-yl)methanesulfonamide] |  |
| 280 | 102 |  |  | CS(=O)(=O)N[C@H]1CCCN[C@H]1CO[C@H]1CC[C@@H](c2cc(F)cc(F)c2F)CC1 [Example 239, N-((2R,3S)-2-(((cis-4-(2,3,5-trifluorophenyl)cyclohexyl)oxy)methyl)piperidin-3-yl)methanesulfonamide] |  |
| 1.5 | 105 |  |  | CS(=O)(=O)N[C@H]1CCCN(C(=O)C2CC2)[C@H]1CO[C@H]1CC[C@@H](c2cc(F)ccc2F)CC1 [Example 214, N-((2R,3S)-1-(cyclopropylcarbonyl)-2-(((cis-4-(2,5-difluorophenyl)cyclohexyl)oxy)methyl)piperidin-3-yl)methanesulfonamide] |  |
| 240 | 98 |  |  | CS(=O)(=O)N[C@H]1CCCN(C(=O)C2CC2)[C@H]1COC1CCC(c2ccccn2)CC1 (relative stereo) [Example 251, N-(cis-1-(cyclopropylcarbonyl)-2-(((4-(pyridin-2-yl)cyclohexyl)oxy)methyl)piperidin-3-yl)methanesulfonamide] |  |
|  |  | 750 | 89 | CC(C)[C@H]1CC[C@@H](OC[C@H]2[C@@H](NS(C)(=O)=O)CCCN2C(=O)CCS(C)(=O)=O)CC1 (relative stereo) [Example 74, N-(cis-2-(((cis-4-isopropylcyclohexyl)oxy)methyl)-1-(3-(methylsulfonyl)-propanoyl)piperidin-3-yl)methanesulfonamide] |  |
|  | 96 |  |  | Cn1ccc([C@H]2CC[C@@H](OC[C@@H]3NCCC[C@@H]3NS(C)(=O)=O)CC2)n1 (relative stereo) [Example 143, N-(cis-2-(((cis-4-(1-methyl-1H-pyrazol-3-yl)cyclohexyl)oxy)methyl)piperidin-3-yl)methanesulfonamide] |  |
| 11 | 101 |  |  | CCNC(=O)N1CCC[C@H](NS(C)(=O)=O)[C@@H]1COC1CCC(c2ccccc2)C1 (relative stereo) [Example 339, cis-N-ethyl-3-((methylsulfonyl)amino)-2-(((3-phenylcyclopentyl)oxy)methyl)-piperidine-1-carboxamide] |  |
|  | 95 |  |  | CS(=O)(=O)N[C@H]1CCCN(C(=O)OCC(F)(F)F)[C@H]1CO[C@H]1CC[C@@H](c2cccc(F)c2)CC1 [Example 276, 2,2,2-trifluoroethyl (2R,3S)-2-(((cis-4-(3-fluorophenyl)cyclohexyl)oxy)methyl)-3-((methylsulfonyl)amino)piperidine-1-carboxylate] |  |
|  |  | 2.2 | 100 | [2H]C1C([2H])[C@]([2H])(C(C)C)C([2H])C([2H])[C@]1([2H])OC[C@H]1[C@@H](NS(C)(=O)=O)CCCN1C(=O)NCC (stereo partly drawn) [Example 104, cis-N-ethyl-2-(((cis-4-isopropyl(1,2,3,4,5,6-d6)cyclohexyl)oxy)methyl)-3-((methylsulfonyl)amino)piperidine-1-carboxamide] |  |
| 2.5 | 105 |  |  | COC(=O)N1CCC[C@H](NS(C)(=O)=O)[C@@H]1CO[C@H]1CC[C@@H](c2c(F)cccc2F)CC1 [Example 215, methyl (2R,3S)-2-(((cis-4-(2,6-difluorophenyl)cyclohexyl)oxy)methyl)-3-((methylsulfonyl)amino)piperidine-1-carboxylate] |  |
| 2400 | 102 |  |  | CCCC(=O)N1CCC[C@H](NS(C)(=O)=O)[C@@H]1COC1CCN(c2ccccc2F)CC1 (relative stereo) [Example 227, N-(cis-1-butyryl-2-(((1-(2-fluorophenyl)piperidin-4-yl)oxy)methyl)piperidin-3-yl)methanesulfonamide] |  |

| Compound | EC50 (FLIPR TETRA, Fluo-4AM) [nM] | Emax [1] [%] | EC50 [2] [nM] | Emax at 30 µM [3] [%] | also measured |
| --- | --- | --- | --- | --- | --- |
| N-(2-(((cis-4-(3-fluorophenyl)cyclohexyl)oxy)methyl)pyridin-3-yl)methanesulfonamide [Example 15] |  |  | 280 |  | Emax [3]: 105% |
